Data on ten molecules can be found in article PMC9782245, “Synthesis and Structural Optimization of 2,7,9-Trisubstituted purin-8-ones as FLT3-ITD Inhibitors” (International Journal of Molecular Sciences, 2022).

Several values for one entry are separate records, joined by “and”; a condition that tells them apart may be missing. Identical values can stand only once. Like-named read-outs stand apart in the source and are kept apart here. Bounds are passed on as bounds.

One data set deals with CDK4/D1 (Homo sapiens, UniProt P11802). As to the kind of experiment: Kinase inhibition assay CDK4/D1. The class given is biochemical. The procedure:
(§1) Newly prepared compounds 12–15 were assayed for inhibition of FLT3-ITD kinase as well as CDK4 and CDK2, known off-targets of structurally related compounds. We observed that CDK4 was sensitive to nearly all compounds with IC50 values in mid-nanomolar values.
(§2) CDK/cyclin complexes and FLT3 kinases were assayed as previously described. Protein kinase selectivity was evaluated at a single concentration (1 µM) by screening against 30 enzymes at Eurofins Discovery (France).

The next data set concerns the target CDK2/E (Homo sapiens, UniProt P24941). As to the kind of experiment: Kinase inhibition assay CDK2/E. The format is biochemical. The procedure:
as §1, §2

The test system of data set [1] is MV4-11 cells. In words: Resazurin-based viability assay, MV4-11. The settings on record: Homo sapiens, MV4-11; 72 h, resazurin; at least duplicate experiments. The format is cell-based, Human. The source says:
(§3) In parallel to kinase assays, we measured the effect of compounds on the viability of cancer cell lines MV4-11 and K562 using a resazurin-based assay. MV4-11 is an AML cell line dependent on a constitutively activated FLT3-ITD kinase with high sensitivity to FLT3 inhibition, K562 cells (chronic myelogenous leukemia) are independent on FLT3.
(§4) Human cell lines were obtained from the European Collection of Authenticated Cell Cultures (K562) and Cell lines service (MV4-11) and were cultivated according to the provider’s instructions. Briefly, cells were maintained in RPMI-1640 (MV4-11) or DMEM (K562) supplemented with 10% fetal bovine serum, penicillin (100 U/mL), and streptomycin (0.1 mg/mL) at 37 °C in 5% CO2. For the viability assays, cells were treated in triplicate with six different doses of each compound for 72 h. After treatments, the resazurin (Sigma Aldrich, St. Louis, MO, USA) solution was added for 4 h, and the fluorescence of resorufin corresponding to live cells was measured at 544/590 nm (excitation/emission) using a Fluoroskan Ascent microplate reader (Labsystems). The GI50 value, the drug concentration lethal to 50% of the cells, was calculated from the dose-response curves that resulted from the assays.
On the technique in general: Alamar Blue is a resazurin reagent that responds to reducing activity.

Another data set concerns the target T1, FLT3-ITD (Homo sapiens, UniProt P36888, ITD).
T1 sequence (P36888 27-993): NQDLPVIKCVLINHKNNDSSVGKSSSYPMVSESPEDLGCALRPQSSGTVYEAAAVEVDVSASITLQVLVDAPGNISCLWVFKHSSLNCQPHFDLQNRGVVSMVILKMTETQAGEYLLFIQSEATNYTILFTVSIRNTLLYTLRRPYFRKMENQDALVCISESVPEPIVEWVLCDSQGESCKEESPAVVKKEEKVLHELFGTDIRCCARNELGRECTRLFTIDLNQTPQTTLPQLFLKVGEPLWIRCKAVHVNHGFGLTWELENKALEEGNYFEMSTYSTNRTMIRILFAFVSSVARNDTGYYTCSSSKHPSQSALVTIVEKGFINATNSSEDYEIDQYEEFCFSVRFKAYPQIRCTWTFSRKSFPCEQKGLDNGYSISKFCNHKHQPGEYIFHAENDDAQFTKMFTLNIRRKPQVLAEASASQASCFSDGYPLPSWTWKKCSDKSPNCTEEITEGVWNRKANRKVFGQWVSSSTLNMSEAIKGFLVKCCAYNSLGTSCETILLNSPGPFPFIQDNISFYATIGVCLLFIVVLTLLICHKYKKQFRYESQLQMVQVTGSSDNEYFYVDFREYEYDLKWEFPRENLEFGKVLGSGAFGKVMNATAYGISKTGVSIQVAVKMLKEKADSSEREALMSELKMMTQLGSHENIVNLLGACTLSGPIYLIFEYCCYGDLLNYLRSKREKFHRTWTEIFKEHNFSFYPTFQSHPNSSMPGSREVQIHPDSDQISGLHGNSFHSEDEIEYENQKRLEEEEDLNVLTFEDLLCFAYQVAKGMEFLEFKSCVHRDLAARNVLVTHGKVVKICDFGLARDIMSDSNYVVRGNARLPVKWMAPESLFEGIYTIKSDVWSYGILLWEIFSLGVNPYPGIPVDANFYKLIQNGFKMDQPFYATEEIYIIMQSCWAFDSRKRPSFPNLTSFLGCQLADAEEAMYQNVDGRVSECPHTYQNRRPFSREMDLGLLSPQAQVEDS
As to the kind of experiment: Kinase inhibition assay FLT3-ITD. The format is biochemical. The procedure:
as §1, §2

Data set [2] has as its system K562 cells. As to the kind of experiment: Resazurin-based viability assay, K562. The format is cell-based. The settings on record: Homo sapiens, 72 h, at least duplicate experiments.
Text: as §3, §4

Data set [3] deals with MV4-11 cells. As to the kind of experiment: Flow cytometric cell cycle analysis, MV4-11. The class given is cell-based, Human. The following applies: 24 h; for effect on cell cycle (G1 arrest) in MV4-11: 200 nM. The procedure:
(§5) FLT3 inhibition causes G1-cell cycle arrest in FLT3-dependent cell lines such as MV4-11; we, therefore, performed flow cytometric analysis to evaluate cell cycle changes in MV4-11 and K562 cell lines treated with 200 nM compounds for 24 h. […] Specifically, 18 compounds arrested >85% of cells in the G1 phase, which is >30% cells in the G1 phase of the cell cycle than in control cells (Figure 4A).
(§6) Finally, we performed flow cytometric analysis with different concentrations of 15a in MV4-11 and MOLM13 (another FLT-ITD positive cell line) and K562 cell lines treated for 24 h (Figure 5).
(§7) Asynchronously growing cells were seeded into a 96-well plate and, after a preincubation period, treated with tested compounds for 24 h. The treated cells were stained directly (or after trypsinization for the adherent cells) with the 5× staining solution (17 mM trisodium citrate dihydrate, 0.5% IGEPAL CA-630, 7.5 mM spermine tetrahydrochloride, and 2.5 mM Tris; pH 7.6 containing […] propidium iodide). After the staining, DNA content was analyzed using flow cytometry using a 488 nm laser (BD FACS Verse with software BD FACSuite^TM, version 1.0.6). Cell cycle distribution was analyzed using ModFit LT (Verity Software House, version 5.0). Palbociclib, trilaciclib, and quizartinib were purchased from MedChemExpress, Monmouth Junction, NJ, USA.

Data set [4] concerns K562 cells. In words: Flow cytometric cell cycle analysis, K562. The format is cell-based, Human. The settings on record: 24 h; for effect on cell cycle (G1 arrest) in K562: 200 nM. The procedure: as §5, §6, §7
Background: A flow cytometer gives signals particle by particle.

Data set [5] relates to oncogenic variants of FLT3. The arrangement: method as in PMID 28418845. The settings on record: cited from earlier work.
The test system of another data set is MOLM13 cells. In words: Flow cytometric cell cycle analysis, MOLM13. The settings on record: increasing doses, 24 h. The class given is cell-based. The protocol:
as §6
as §7, with “5.0).” for “5.0). Palbociclib, trilaciclib, and quizartinib were purchased from MedChemExpress, Monmouth Junction, NJ, USA.”

Setting [6] is: at least duplicate experiments, read-out: IC50 CDK4/D1.
[7] abbreviates: at least duplicate experiments, read-out: IC50 CDK2/E.
Setting [8] is: at least duplicate experiments, read-out: IC50 FLT3-ITD.

What is called GI50 is the concentration at which growth is held to half of that of the control. Read a low GI50 as more potent growth inhibition. Usually melting point stands for the temperature, or range, at which the solid turns liquid.

Chain of CDK4/D1 (P11802 whole entry): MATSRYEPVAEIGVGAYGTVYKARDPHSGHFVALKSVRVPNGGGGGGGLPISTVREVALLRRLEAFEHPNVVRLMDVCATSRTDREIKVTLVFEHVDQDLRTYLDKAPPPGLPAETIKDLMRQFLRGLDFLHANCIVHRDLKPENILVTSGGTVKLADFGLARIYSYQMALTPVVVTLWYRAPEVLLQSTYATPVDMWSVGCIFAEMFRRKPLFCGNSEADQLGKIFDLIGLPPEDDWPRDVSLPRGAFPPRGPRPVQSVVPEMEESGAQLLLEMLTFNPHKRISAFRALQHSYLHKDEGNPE
Chain of CDK4/D1 (P24385 whole entry partner): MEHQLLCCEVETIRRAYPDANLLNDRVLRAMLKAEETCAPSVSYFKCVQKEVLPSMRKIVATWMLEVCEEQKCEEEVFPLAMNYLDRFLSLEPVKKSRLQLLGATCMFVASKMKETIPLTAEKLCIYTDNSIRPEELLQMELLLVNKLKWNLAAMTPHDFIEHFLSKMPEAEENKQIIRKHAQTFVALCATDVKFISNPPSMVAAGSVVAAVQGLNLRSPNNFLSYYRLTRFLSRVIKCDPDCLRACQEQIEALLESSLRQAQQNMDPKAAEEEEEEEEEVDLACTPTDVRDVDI

Consider `Cn1c(=O)n(C2CCCCCCCCCCC2)c2nc(Nc3ccc(N4CCNCC4)cc3)ncc21` [14j], for which the IC50 at CDK4/D1 (setting [6]) is 338 nM; at CDK2/E (setting [7]), > 1000 nM and 1020 nM; at FLT3-ITD (setting [8]), 75 nM. In addition, the GI50 was found to be 1810 nM in the data set on MV4-11 cells [1] and 3590 nM in the data set on K562 cells [2]. Moreover, in the data set on MV4-11 cells [3], the “effect on cell cycle (G1 arrest) in MV4-11” value (shortened to “effect … in MV4-11”) is “did not significantly affect the cell cycle”.
For `CC(=O)c1c(C)c2cnc(Nc3ccc(N4CCNCC4)cn3)nc2n(C2CCCC2)c1=O` [palbociclib, reference compound], in the data set with K562 cells [4], the “effect on cell cycle (G1 arrest) in K562” value was “significantly arrest both cell lines in the G1 phase”. In the data set on MV4-11 cells [3], the “effect … in MV4-11” value was “significantly arrest both cell lines in the G1 phase”.
`Cc1ccccc1-n1c(=O)n(C)c2cnc(Nc3ccc(N4CCNCC4)cc3)nc21` [14n] came in with a melting point of 152 to 154 °C. The IC50 on CDK4/D1 (setting [6]) was determined as 1870 nM. In addition, the IC50 at CDK2/E (setting [7]) was found to be 540 nM. Moreover, in the data set with MV4-11 cells [1], halving of growth (GI50) required 1250 nM. The IC50 on FLT3-ITD (setting [8]) came to 2940 nM. Besides, the concentration for 50% growth inhibition (GI50) with K562 cells [2] came out at 16700 nM. The “effect … in MV4-11” value with MV4-11 cells [3] is on record as “did not significantly affect the cell cycle”.
On to `CC1CCC(n2c(C(F)(F)F)nc3cnc(Nc4ccc(N5CCNCC5)cc4)nc32)CC1` (stereo not shown) [12c], for which the melting point was in the range of 228 to 230 °C. In addition, the “effect on cell cycle (G1 arrest) in K562” value in the data set with K562 cells [4] is listed as “moderate G1 block”. For the same molecule, at CDK4/D1 (setting [6]), the IC50 is 12 nM. Moreover, the IC50 on CDK2/E (setting [7]) came out at 230 nM. The molecule further came in with a GI50 with MV4-11 cells [1] of 440 nM. Also, the IC50 on FLT3-ITD (setting [8]) was determined as 85 nM. In addition, the GI50 with K562 cells [2] turned out to be 8210 nM.
For `CN1CCN(c2ccc(Nc3ncc4cc5n(c4n3)C3(CCCCC3)CNC5=O)nc2)CC1` [trilaciclib], in data set [5], the “affinity to oncogenic variants of FLT3” value was “low nanomolar affinity”.
On to `Cn1c(=O)[nH]c2nc(Nc3ccc(N4CCNCC4)cc3)ncc21` [14a], for which the IC50 at CDK4/D1 (setting [6]) is greater than 20000 nM; on CDK2/E (setting [7]), greater than 20000 nM; on FLT3-ITD (setting [8]), 6900 nM. Besides, the GI50 in the data set on MV4-11 cells [1] is 5650 nM; in the data set with K562 cells [2], greater than 100000 nM. Besides, the “effect … in MV4-11” value with MV4-11 cells [3] is recorded as “did not significantly affect the cell cycle”.
In turn, `Cc1ccc(-n2c(=O)n(C)c3cnc(Nc4ccc(N5CCNCC5)cc4)nc32)cc1` [14o] registered a melting point of 126 to 128 °C. The IC50 at CDK4/D1 (setting [6]) was found to be 169 nM. Besides, on CDK2/E (setting [7]), the IC50 is > 1000 nM and 2400 nM. The same molecule yielded a 50% growth inhibitory concentration (GI50) in the data set on MV4-11 cells [1] of 460 nM. For the same molecule, the IC50 on FLT3-ITD (setting [8]) is 160 nM. For the same molecule, the GI50 with K562 cells [2] is 7620 nM.
Turning to `Cn1c(=O)n([C@H]2CC[C@H](C)CC2)c2nc(Nc3ccc(N4CCNCC4)cc3)ncc21` [14g], the melting point lay in the range of 114 to 116 °C. The IC50 on CDK4/D1 (setting [6]) is 27 nM. For the same molecule, at CDK4/D1 (read-out: IC50 CDK4), the IC50 is no more than 300 nM. On CDK2/E (setting [7]), the IC50 was determined as 180 nM. Moreover, the IC50 on CDK2/E (read-out: IC50 CDK2) was no more than 300 nM. Further, growth with MV4-11 cells [1] was halved (GI50) at 110 nM. Moreover, on FLT3-ITD (setting [8]), the IC50 came out at 68 nM. In addition, on FLT3-ITD (read-out: IC50 FLT3), the IC50 was no more than 300 nM. Also, the concentration for 50% growth inhibition (GI50) in the data set on K562 cells [2] was 1260 nM.
Turning to `CC(C)(C)c1cc(NC(=O)Nc2ccc(-c3cn4c(n3)sc3cc(OCCN5CCOCC5)ccc34)cc2)no1` [quizartinib, reference compound], the “effect on cell cycle (G1 arrest) in K562” value with K562 cells [4] is “arrested selectively only MV4-11”. In addition, the “cell cycle changes in K562” value with K562 cells [4] (different concentrations) is given as “did not show any changes”. Further, in the data set on MOLM13 cells, the “cells in the G1 phase, MOLM13” value is given as “up to 90%”. Further, the “effect … in MV4-11” value with MV4-11 cells [3] is given as “arrested selectively only MV4-11”. For the same molecule, the “cells in the G1 phase, MV4-11” value in the data set with MV4-11 cells [3] (increasing doses) is “up to 90%”.
As to `Cn1c(=O)n(C2CC2)c2nc(Nc3ccc(N4CCNCC4)cc3)ncc21` [14b], the melting point lay within 156 to 158 °C. Further, at CDK4/D1 (setting [6]), the IC50 was > 1000 nM and 8020 nM. Besides, on CDK2/E (setting [7]), the IC50 was greater than 20000 nM. Also, growth in the data set on MV4-11 cells [1] was halved (GI50) at 710 nM. Further, the IC50 at FLT3-ITD (setting [8]) was 642 nM. The same molecule displayed a GI50 in the data set on K562 cells [2] of 45300 nM.
